Where two headings read alike, the source gives them in different places.
What was measured:
Diabrotica balteata = assay: Activity against Diabrotica balteata (Example B2); format: in vivo; details: 144 h, maize seedlings sprayed, 400 ppm active ingredient, 2nd instar larvae, 6 days, read-out: percentage reduction in the population (% activity)
Experimental: Maize seedlings are sprayed with an aqueous emulsion spray mixture comprising 400 ppm of active ingredient and, after the spray coating has dried on, populated with 10 larvae (2nd instar) of Diabrotica balteata and introduced into a plastic container. 6 days later, the percentage reduction in the population (% activity) is determined by comparing the number of dead larvae between the treated and untreated plants.

Heliothis virescens = assay: Activity against Heliothis virescens, foliar application (Example B3); format: in vivo; details: 144 h, young soya plants sprayed, 400 ppm active ingredient, 1st instar caterpillars, 6 days, read-out: percentage reduction in the population and in the feeding damage (% activity)
Experimental: (§1) Young soya plants are sprayed with an aqueous emulsion spray mixture comprising 400 ppm of active ingredient and, after the spray coating has dried on, populated with 10 caterpillars (1st instar) of Heliothis virescens and introduced into a plastic container. 6 days later, the percentage reduction in the population and in the feeding damage (% activity) are determined by comparing the number of dead caterpillars and the feeding damage between the treated and untreated plants.

Myzus persicae = assay: Activity against Myzus persicae, foliar application (Example B5); format: in vivo; details: pea seedlings sprayed, 400 ppm active ingredient, 20°, 3 and 6 days, read-out: percentage reduction in the population (% activity)
Experimental: Pea seedlings are infected with Myzus persicae, subsequently sprayed with a spray mixture comprising 400 ppm of active ingredient and then incubated at 20°. 3 and 6 days later, the percentage reduction in the population (% activity) is determined by comparing the number of dead aphids between the treated and untreated plants.

Plutella xylostella = assay: Activity against Plutella xylostella (Example B7); format: in vivo; details: 72 h, young cabbage plants sprayed, 400 ppm active ingredient, 3rd instar caterpillars, 3 days, read-out: percentage reduction in the population and in the feeding damage (% activity)
Experimental: as §1, with “cabbage” for “soya”, “(3rd” for “(1st”, “Plutella xylostella” for “Heliothis virescens”, “3” for “6”

Spodoptera littoralis [1] = assay: Activity against Spodoptera littoralis (Example B8); format: in vivo; details: 72 h, young soya plants sprayed, 400 ppm active ingredient, 1st instar caterpillars, 3 days, read-out: percentage reduction in the population and in the feeding damage (% activity)
Experimental: as §1, with “Spodoptera littoralis” for “Heliothis virescens”, “3” for “6”

Spodoptera littoralis [2] = assay: Systemic insecticide test for Spodoptera littoralis (cotton leafworm) (Example B9); format: in vivo; details: 96 h, read-out: percentage of dead (activity)
Experimental: Four day old maize seedlings (Zea mays, variety Stoneville) are placed individual in vials containing 24 ml water into which the chemical is diluted at 12.5 ppm. Seedlings are allowed to grow for six days. Subsequently leaves are cut and placed in a Petri dish (5 cm diameter), inoculated with twelve to fifteen 1st instar S. littoralis larvae and incubated for four days in a growth chamber (25° C., 50% r.h., 18:6 L:D photo period). Number of alive insects are counted and percentage of dead calculated. Tests were conducted with one replicate. In this test, compounds listed in the Tables above show good activity. In particular compounds T1.1.17, T1.1.89, T41.1.1, T35.1.1, T40.1.1, T30.1.1, T44.1.1, T31.1.1, T31.1.2, T30.1.2, T1.1.17, T1.1.89, T16.1.1, T36.1.1, T16.1.1, T3.7.1, T18.1.1, T43.1.1, T42.1.1, T30.1.2, T30.1.1, T40.1.1, T41.1.1, T45.1.1, T35.1.1, T1.1.73, T18.1.1, T36.1.1, T1.1.1 and T1.1.73 have an activity of over 80%.

## Cc1cc(Cl)cc(C(=O)NC(CS(C)(=N)=O)C(C)C)c1NC(=O)c1cc(C(F)(F)F)nn1-c1ncccc1Cl (stereo not shown)
other
  melting point: 248 to 250 °C

## CCCCC(CS(C)(=N)=O)NC(=O)c1cc(Cl)cc(C)c1NC(=O)c1cc(C(F)(F)F)nn1-c1ncccc1Cl (stereo not shown)
other
  melting point: 225 to 226 °C

## COC(=O)C(CCS(C)(=N)=O)NC(=O)c1cc(Cl)cc(C)c1NC(=O)c1cc(C(F)(F)F)nn1-c1ncccc1Cl (stereo not shown)
other
  melting point: 207 to 209 °C

## Cc1cc(Cl)cc(C(=O)NCC(C)S(C)(=O)=NC(=O)C(F)(F)F)c1NC(=O)c1cc(C(F)(F)F)nn1-c1ncccc1Cl (stereo not shown)
other
  melting point: 125 to 130 °C

## Cc1cc(C#N)cc(C(=O)NC2(CS(C)(=O)=NC(=O)C(F)(F)F)CC2)c1NC(=O)c1cc(C(F)(F)F)nn1-c1ncccc1Cl (stereo not shown)
other
  melting point: 187 to 189 °C

## Cc1cc(Cl)cc(C(=O)NC(C)(C)CS(C)(=N)=O)c1NC(=O)c1cc(C(F)(F)F)nn1-c1ncccc1Cl (stereo not shown) [T1.1.1]
Diabrotica balteata
  inhibition at 400 ppm: > 80%
Heliothis virescens
  inhibition at 400 ppm: > 80%
Myzus persicae
  inhibition at 400 ppm: > 80%
Plutella xylostella
  inhibition at 400 ppm: > 80%
Spodoptera littoralis [1]
  inhibition at 400 ppm: > 80%
Spodoptera littoralis [2]; in Zea mays
  pest or weed control at 12.5 ppm: > 80%

## Cc1cc(Cl)cc(C(=O)NC(C)(C)CS(C)(=N)=O)c1NC(=O)c1cc(OCC(F)(F)F)nn1-c1ncccc1Cl (stereo not shown) [T1.1.17]
Diabrotica balteata
  inhibition at 400 ppm: > 80%
Plutella xylostella
  inhibition at 400 ppm: > 80%
Spodoptera littoralis [1]
  inhibition at 400 ppm: > 80%
Spodoptera littoralis [2]; in Zea mays
  pest or weed control at 12.5 ppm: > 80%

## Cc1cc(C#N)cc(C(=O)NC(C)(C)CS(C)(=N)=O)c1NC(=O)c1cc(C(F)(F)F)nn1-c1ncccc1Cl (stereo not shown) [T1.1.73]
Diabrotica balteata
  inhibition at 400 ppm: > 80%
Plutella xylostella
  inhibition at 400 ppm: > 80%
Spodoptera littoralis [1]
  inhibition at 400 ppm: > 80%
Spodoptera littoralis [2]; in Zea mays
  pest or weed control at 12.5 ppm: > 80%

## Cc1cc(C#N)cc(C(=O)NC(C)(C)CS(C)(=N)=O)c1NC(=O)c1cc(OCC(F)(F)F)nn1-c1ncccc1Cl (stereo not shown) [T1.1.89]
Diabrotica balteata
  inhibition at 400 ppm: > 80%
Plutella xylostella
  inhibition at 400 ppm: > 80%
Spodoptera littoralis [1]
  inhibition at 400 ppm: > 80%
Spodoptera littoralis [2]; in Zea mays
  pest or weed control at 12.5 ppm: > 80%

## Cc1cc(Cl)cc(C(=O)NC(C)(C)CS(C)(=O)=NC(=O)C(F)(F)F)c1NC(=O)c1cc(C(F)(F)F)nn1-c1ncccc1Cl (stereo not shown) [T3.1.1]
Diabrotica balteata
  inhibition at 400 ppm: > 80%
Heliothis virescens
  inhibition at 400 ppm: > 80%
Myzus persicae
  inhibition at 400 ppm: > 80%
Plutella xylostella
  inhibition at 400 ppm: > 80%
Spodoptera littoralis [1]
  inhibition at 400 ppm: > 80%
other
  melting point: 112 to 115 °C

## Cc1cc(Cl)cc(C(=O)NC(C)CS(C)(=N)=O)c1NC(=O)c1cc(C(F)(F)F)nn1-c1ncccc1Cl (stereo not shown) [T16.1.1]
Diabrotica balteata
  inhibition at 400 ppm: > 80%
Heliothis virescens
  inhibition at 400 ppm: > 80%
Plutella xylostella
  inhibition at 400 ppm: > 80%
Spodoptera littoralis [1]
  inhibition at 400 ppm: > 80%
Spodoptera littoralis [2]; in Zea mays
  pest or weed control at 12.5 ppm: > 80%

## Cc1cc(Cl)cc(C(=O)NC(C)CS(C)(=O)=NC(=O)C(F)(F)F)c1NC(=O)c1cc(C(F)(F)F)nn1-c1ncccc1Cl (stereo not shown) [T18.1.1]
Diabrotica balteata
  inhibition at 400 ppm: > 80%
Plutella xylostella
  inhibition at 400 ppm: > 80%
Spodoptera littoralis [1]
  inhibition at 400 ppm: > 80%
Spodoptera littoralis [2]; in Zea mays
  pest or weed control at 12.5 ppm: > 80%

## Cc1cc(Cl)cc(C(=O)NCCS(C)(=N)=O)c1NC(=O)c1cc(C(F)(F)F)nn1-c1ncccc1Cl (stereo not shown) [T30.1.1]
Plutella xylostella
  inhibition at 400 ppm: > 80%
Spodoptera littoralis [1]
  inhibition at 400 ppm: > 80%
Spodoptera littoralis [2]; in Zea mays
  pest or weed control at 12.5 ppm: > 80%

## CCS(=N)(=O)CCNC(=O)c1cc(Cl)cc(C)c1NC(=O)c1cc(C(F)(F)F)nn1-c1ncccc1Cl (stereo not shown) [T30.1.2]
Plutella xylostella
  inhibition at 400 ppm: > 80%
Spodoptera littoralis [1]
  inhibition at 400 ppm: > 80%
Spodoptera littoralis [2]; in Zea mays
  pest or weed control at 12.5 ppm: > 80%

## Cc1cc(Cl)cc(C(=O)NCCS(C)(=O)=NC(=O)C(F)(F)F)c1NC(=O)c1cc(C(F)(F)F)nn1-c1ncccc1Cl (stereo not shown) [T31.1.1]
Plutella xylostella
  inhibition at 400 ppm: > 80%
Spodoptera littoralis [1]
  inhibition at 400 ppm: > 80%
Spodoptera littoralis [2]; in Zea mays
  pest or weed control at 12.5 ppm: > 80%

## CCS(=O)(CCNC(=O)c1cc(Cl)cc(C)c1NC(=O)c1cc(C(F)(F)F)nn1-c1ncccc1Cl)=NC(=O)C(F)(F)F (stereo not shown) [T31.1.2]
Plutella xylostella
  inhibition at 400 ppm: > 80%
Spodoptera littoralis [1]
  inhibition at 400 ppm: > 80%
Spodoptera littoralis [2]; in Zea mays
  pest or weed control at 12.5 ppm: > 80%

## Cc1cc(Cl)cc(C(=O)NCc2ccccc2S(C)(=N)=O)c1NC(=O)c1cc(C(F)(F)F)nn1-c1ncccc1Cl (stereo not shown) [T34.1.1]
Plutella xylostella
  inhibition at 400 ppm: > 80%
Spodoptera littoralis [1]
  inhibition at 400 ppm: > 80%
other
  melting point: 235 to 238 °C

## Cc1cc(Cl)cc(C(=O)NCc2ccccc2S(C)(=O)=NC(=O)C(F)(F)F)c1NC(=O)c1cc(C(F)(F)F)nn1-c1ncccc1Cl (stereo not shown) [T35.1.1]
Heliothis virescens
  inhibition at 400 ppm: > 80%
Plutella xylostella
  inhibition at 400 ppm: > 80%
Spodoptera littoralis [1]
  inhibition at 400 ppm: > 80%
Spodoptera littoralis [2]; maize seedlings in water with 12.5 ppm, 6 days growth, cut leaves, 1st instar larvae, 4 days, one replicate
  pest or weed control at 12.5 ppm: > 80%

## Cc1cc(Cl)cc(C(=O)NCC(C)S(C)(=N)=O)c1NC(=O)c1cc(C(F)(F)F)nn1-c1ncccc1Cl (stereo not shown) [T36.1.1]
Plutella xylostella
  inhibition at 400 ppm: > 80%
Spodoptera littoralis [1]
  inhibition at 400 ppm: > 80%
Spodoptera littoralis [2]; in Zea mays
  pest or weed control at 12.5 ppm: > 80%

## CCC(CS(C)(=N)=O)NC(=O)c1cc(Cl)cc(C)c1NC(=O)c1cc(C(F)(F)F)nn1-c1ncccc1Cl (stereo not shown) [T38.1.1]
Plutella xylostella
  inhibition at 400 ppm: > 80%
other
  melting point: 180 to 185 °C

## CCC(CS(C)(=O)=NC(=O)C(F)(F)F)NC(=O)c1cc(Cl)cc(C)c1NC(=O)c1cc(C(F)(F)F)nn1-c1ncccc1Cl (stereo not shown) [T39.1.1]
Plutella xylostella
  inhibition at 400 ppm: > 80%
other
  melting point: 170 to 174 °C

## Cc1cc(Cl)cc(C(=O)NCCCCS(C)(=N)=O)c1NC(=O)c1cc(C(F)(F)F)nn1-c1ncccc1Cl (stereo not shown) [T40.1.1]
Plutella xylostella
  inhibition at 400 ppm: > 80%
Spodoptera littoralis [1]
  inhibition at 400 ppm: > 80%
Spodoptera littoralis [2]; in Zea mays
  pest or weed control at 12.5 ppm: > 80%

## Cc1cc(Cl)cc(C(=O)NCCCCS(C)(=O)=NC(=O)C(F)(F)F)c1NC(=O)c1cc(C(F)(F)F)nn1-c1ncccc1Cl (stereo not shown) [T41.1.1]
Plutella xylostella
  inhibition at 400 ppm: > 80%
Spodoptera littoralis [1]
  inhibition at 400 ppm: > 80%
Spodoptera littoralis [2]; in Zea mays
  pest or weed control at 12.5 ppm: > 80%

## Cc1cc(Cl)cc(C(=O)NCC(C)(C)CS(C)(=N)=O)c1NC(=O)c1cc(C(F)(F)F)nn1-c1ncccc1Cl (stereo not shown) [T42.1.1]
Plutella xylostella
  inhibition at 400 ppm: > 80%
Spodoptera littoralis [1]
  inhibition at 400 ppm: > 80%
Spodoptera littoralis [2]; in Zea mays
  pest or weed control at 12.5 ppm: > 80%

## Cc1cc(Cl)cc(C(=O)NCC(C)(C)CS(C)(=O)=NC(=O)C(F)(F)F)c1NC(=O)c1cc(C(F)(F)F)nn1-c1ncccc1Cl (stereo not shown) [T43.1.1]
Plutella xylostella
  inhibition at 400 ppm: > 80%
Spodoptera littoralis [1]
  inhibition at 400 ppm: > 80%
Spodoptera littoralis [2]; in Zea mays
  pest or weed control at 12.5 ppm: > 80%

## Cc1cc(Cl)cc(C(=O)NCCOCCS(C)(=N)=O)c1NC(=O)c1cc(C(F)(F)F)nn1-c1ncccc1Cl (stereo not shown) [T44.1.1]
Plutella xylostella
  inhibition at 400 ppm: > 80%
Spodoptera littoralis [1]
  inhibition at 400 ppm: > 80%
Spodoptera littoralis [2]; in Zea mays
  pest or weed control at 12.5 ppm: > 80%

## Cc1cc(Cl)cc(C(=O)NCCOCCS(C)(=O)=NC(=O)C(F)(F)F)c1NC(=O)c1cc(C(F)(F)F)nn1-c1ncccc1Cl (stereo not shown) [T45.1.1]
Plutella xylostella
  inhibition at 400 ppm: > 80%
Spodoptera littoralis [2]; in Zea mays
  pest or weed control at 12.5 ppm: > 80%

## Cc1cc(Cl)cc(C(=O)NCCCCCCS(C)(=N)=O)c1NC(=O)c1cc(C(F)(F)F)nn1-c1ncccc1Cl (stereo not shown) [T46.1.1]
Heliothis virescens
  inhibition at 400 ppm: > 80%
Plutella xylostella
  inhibition at 400 ppm: > 80%
Spodoptera littoralis [1]
  inhibition at 400 ppm: > 80%
other
  melting point: 148 to 152 °C

## Cc1cc(Cl)cc(C(=O)NCCCCCCS(C)(=O)=NC(=O)C(F)(F)F)c1NC(=O)c1cc(C(F)(F)F)nn1-c1ncccc1Cl (stereo not shown) [T47.1.1]
Plutella xylostella
  inhibition at 400 ppm: > 80%
Spodoptera littoralis [1]
  inhibition at 400 ppm: > 80%
other
  melting point: 110 to 113 °C

Reference: patent US7893092B2, “Anthranilamide derivatives as insecticides” (Syngenta Crop Protection, Inc., priority 2004, dated 2011)
